SMILES strings stand for the structures. Read-outs that look alike come from different tables or passages of the source.

The target of assay [1] is T1, Muscarine M4 (GPCR-A-MA-ACH M4) (Homo sapiens, UniProt P08173).
T1 construct: expressed in transfected cells; host or cells: CHO cells
T1 sequence (P08173 1-479): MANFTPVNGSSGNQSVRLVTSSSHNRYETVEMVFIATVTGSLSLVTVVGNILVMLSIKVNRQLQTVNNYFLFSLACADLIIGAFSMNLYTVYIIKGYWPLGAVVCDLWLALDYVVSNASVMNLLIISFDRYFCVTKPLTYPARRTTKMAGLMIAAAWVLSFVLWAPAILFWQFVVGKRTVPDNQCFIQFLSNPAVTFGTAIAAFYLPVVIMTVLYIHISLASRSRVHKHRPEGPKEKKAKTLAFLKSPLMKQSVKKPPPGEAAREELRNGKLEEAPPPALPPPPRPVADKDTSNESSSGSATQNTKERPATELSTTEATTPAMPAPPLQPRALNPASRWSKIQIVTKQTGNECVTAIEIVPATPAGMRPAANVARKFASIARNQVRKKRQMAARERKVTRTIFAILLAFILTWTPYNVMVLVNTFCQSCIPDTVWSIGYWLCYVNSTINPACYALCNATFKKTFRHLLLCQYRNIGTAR
As to the kind of experiment: Muscarine M4 receptor binding, 3H-Oxotremorine. The method, then: (§1) Compounds were dissolved in DMSO (10 mM) and diluted in assay buffer to test concentration. Prime testing was at 10 μM; for actives (PI, percent inhibition with respect to total and non-specific binding >40%) testing was continued at lower concentrations in 10-fold dilutions: 1 μM, 0.1 μM, etc.
(§2) Following incubation of compound with the receptor preparation (from ‘Tissue’) and the Ligand at the time and temperature indicated, the receptor preparations were rapidly filtered under vacuum through glass fibre filters; the filters were washed extensively with an ice-cold buffer using a harvester. Bound radioactivity was measured by scintillation counting using a liquid scintillation cocktail.
(§3) Results were expressed as percentage of total Ligand binding and that of Non Specific Binding, per concentration of Compound tested (duplicates); from the concentration—displacement curves IC50 values were determined by non-linear regression analysis using Hill equation curve fitting. The inhibition constants (Ki) were calculated from the Cheng-Prushoff equation Ki=IC50/(1+L/Kd), where L is the concentration of radioligand in the assay, and Kd the affinity of the radioligand for the receptor. Results were expressed as pKi's, means±SD of at least 2 separate experiments; i.e. outliers (outside+/−1 std of mean) and discrepancies were excluded.

Assay [2] has as its target T1, Muscarine M4 (GPCR-A-MA-ACH M4). Kind of assay: Muscarine M4 cell-based functional assay (CHO cells, Ca2+ - Aequorin luminescence). Here is the method:
Compounds were dissolved in DMSO (10 mM) and diluted in assay buffer to test concentration. Prime testing was at 1 μM; for actives in antagonist mode (PI, percent inhibition with respect to reference agonist and blank>30%) as well as actives in agonist mode (PS, percent stimulation with respect to reference agonist and blank>30%) testing was continued at lower concentrations in 10-fold dilutions: 0.1 μM, 0.01 μM, etc.
Cells were incubated with compound and the response indicated was measured.
The results are expressed as a percent of reference agonist values and blanks in the presence of the test compound, percent stimulation for agonist mode; for the antagonist mode (test compound in the presence of reference agonist) as percent inhibition. The EC50 values (concentration causing a half-maximal stimulation of control values), IC50 values (concentration causing a half-maximal inhibition of control values) were determined by non-linear regression analysis of the concentration-response curves using Hill equation curve fitting.

Assay [3] has the same target. Kind of assay: Muscarine M4 receptor binding, 3H-4DAMP. Conditions: human M4, CHO cells, ligand 0.2 nM, 60 min/22° C., read-out: RB Musc. M4 3H-DAMP pKi (converted). The method, then: as §1, §2, §3
Assay [4] has as its target T2, Muscarine M1 (GPCR-A-MA-ACH M1) (Homo sapiens, UniProt P11229).
T2 construct: expressed in transfected cells; host or cells: CHO cells
T2 sequence (P11229 1-460): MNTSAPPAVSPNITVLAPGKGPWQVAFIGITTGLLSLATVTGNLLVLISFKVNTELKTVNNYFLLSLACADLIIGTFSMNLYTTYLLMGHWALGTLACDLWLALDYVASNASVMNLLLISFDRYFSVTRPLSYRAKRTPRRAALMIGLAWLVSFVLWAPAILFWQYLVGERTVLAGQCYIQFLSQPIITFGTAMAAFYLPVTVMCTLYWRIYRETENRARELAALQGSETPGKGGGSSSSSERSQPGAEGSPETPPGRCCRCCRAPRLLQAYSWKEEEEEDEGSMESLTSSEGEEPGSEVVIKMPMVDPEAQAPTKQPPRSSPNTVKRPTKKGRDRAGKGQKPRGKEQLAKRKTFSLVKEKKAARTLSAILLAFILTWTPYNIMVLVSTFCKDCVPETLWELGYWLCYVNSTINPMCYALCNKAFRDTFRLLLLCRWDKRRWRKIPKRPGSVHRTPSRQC
Kind of assay: Muscarine M1 receptor binding, 3H-Pirenzepine. To be noted: human M1, CHO cells, ligand 2 nM, 60 min/22° C., read-out: RB Musc. M1 3H-Pirenzepine pKi (converted). The method, then: as §1, §2, §3

Assay [5] concerns the target T2, Muscarine M1 (GPCR-A-MA-ACH M1). As to the kind of experiment: Muscarine M1 cell-based functional assay (CHO cells, Ca2+ - FLIPR Fluorimetry). Conditions: read-out: Cell funct. Musc. M1 Agonism pEC50 (converted).
Where [6] appears, read: human M4, CHO cells, receptor binding, ligand 6 nM, 30 min/25° C., read-out: RB Musc. M4 3H-Oxotremorine pKi (converted).
[7] abbreviates: human M4, CHO cells, agonist mode, reference agonist oxotremorine, read-out: Cell funct. Musc. M4 Agonism pEC50 (converted).
Setting [8] is: human M1, CHO cells, agonist mode, reference agonist acetylcholine.

For the molecule `CCCCCCCOc1c[nH]nc1C1=CCCN(C)C1` [Compound 33E, 3-(4-Heptyloxy-1H-pyrazol-3-yl)-1,2,5,6-tetrahydro-1-methylpyridine], the Ki in assay [1] (setting [6]) is 0.158 µM; in assay [3], 0.316 µM; in assay [4], 1 µM. Further, the EC50 in assay [2] (setting [7]) was 0.631 µM; in assay [5] (setting [8]), 0.2 µM.
Taken in the same sequence, the figures for `CCCCCCC=Cc1conc1C1=CCCN(C)C1` [Compound 68B, 3-(4-Oct-1-enyl-isoxazol-3-yl)-1,2,5,6-tetrahydro-1-methylpyridine] were 0.794 µM, 1 µM, 5.01 µM, 0.794 µM and 0.794 µM.
For `CCCCOc1c[nH]nc1C1=CCCN(C)C1` [Compound 33C, 3-(4-Butyloxy-1H-pyrazol-3-yl)-1,2,5,6-tetrahydro-1-methylpyridine], the Ki is 1.58 µM in assay [1] (setting [6]), 0.316 µM in assay [3] and 1.26 µM in assay [4]. The EC50 in assay [2] (setting [7]) is 1.26 µM; in assay [5] (setting [8]), 0.126 µM.
In the case of `FC(F)=CCCSc1c[nH]nc1C1CN2CCC1CC2` (stereo not shown) [Compound 49I, 3-[4-(4,4-Difluoro-but-3-enylsulfanyl)-1H-pyrazol-3-yl]-1-azabicyclo[2.2.2]octane], the Ki is 0.0126 µM in assay [1], 0.0631 µM in assay [3] and 0.316 µM in assay [4]. Further, the EC50 in assay [2] is 0.02 µM; in assay [5], 0.00316 µM.
In the case of `CCSc1c[nH]nc1C1CN2CCC1CC2` (stereo not shown) [Compound 49D, 3-(4-Ethylsulfanyl-1H-pyrazol-3-yl)-1-azabicyclo[2.2.2]octane], the figures for the Ki in assay [1], in assay [3] and in assay [4] were 0.126 µM, 0.1 µM and 0.794 µM, respectively. Moreover, the EC50 in assay [2] was 0.158 µM; in assay [5], 0.0398 µM.
`CCCCCC#Cc1conc1C1=CCCN(C)C1` [Compound 70A, 3-(4-Hept-1-ynyl-isoxazol-3-yl)-1,2,5,6-tetrahydro-1-methylpyridine]: the Ki in assay [1] (setting [6]) is 0.251 µM; in assay [3], 0.2 µM; in assay [4] it was 1 µM. The results for the EC50 in assay [2] (setting [7]) and in assay [5] (setting [8]) were 0.631 µM and 0.251 µM, respectively.
As to `CCCCC=Cc1c[nH]nc1C1=CCCN(C)C1` [Compound 47A, 3-(4-Hex-1-enyl-1H-pyrazol-3-yl)-1,2,5,6-tetrahydro-1-methylpyridine], the values for the Ki in assay [1] (setting [6]), in assay [3] and in assay [4] were 0.251 µM, 0.794 µM and 2.51 µM, respectively. The EC50 in assay [2] (setting [7]) is 0.501 µM; in assay [5] (setting [8]) it was 0.158 µM.
`C=CCCOc1c[nH]nc1C1=CCCN(C)C1` [Compound 33D, 3-(4-But-3-enyloxy-1H-pyrazol-3-yl)-1,2,5,6-tetrahydro-1-methylpyridine]: the Ki in assay [1] (setting [6]) was 1.58 µM; in assay [3], 1 µM; in assay [4], 2.51 µM. The EC50 in assay [2] (setting [7]) is 1.26 µM; in assay [5] (setting [8]), 0.1 µM.
As to `CCCCCC#Cc1c[nH]nc1C1=CCCN(C)C1` [Compound 45B, 3-(4-Hept-1-ynyl-1H-pyrazol-3-yl)-1,2,5,6-tetrahydro-1-methylpyridine], the Ki in assay [1] (setting [6]) is 0.501 µM; in assay [3] it was 1.26 µM; in assay [4], 2 µM. The EC50 is 0.316 µM in assay [2] (setting [7]) and 0.126 µM in assay [5] (setting [8]).
On to `CCCCC#Cc1c[nH]nc1C1=CCCN(C)C1` [Compound 45A, 3-(4-Hex-1-ynyl-1H-Pyrazol-3-yl)-1,2,5,6-tetrahydro-1-methylpyridine], for which the Ki in assay [1] (setting [6]) was 0.398 µM; in assay [3], 0.631 µM; in assay [4], 1.58 µM. In addition, the EC50 in assay [2] (setting [7]) is 0.794 µM; in assay [5] (setting [8]), 0.126 µM.
Take `CN1CCC=C(c2n[nH]cc2C#CCCCC2CCCCC2)C1` [Compound 45E, 3-[4-(5-Cyclohexyl-pent-1-ynyl)-1H-pyrazol-3-yl]-1,2,5,6-tetrahydro-1-methylpyridine]: the Ki in assay [1] (setting [6]), in assay [3] and in assay [4] was 1.58 µM in each case. Further, the EC50 in assay [2] (setting [7]) is greater than 10 µM; in assay [5] (setting [8]), greater than 1 µM.
As to `Ic1c[nH]nc1[C@@H]1CN2CCC[C@H]1C2` [Compound 59, endo-6-(4-iodo-1H-pyrazol-3-yl)-1-azabicyclo[3.2.1]octane], the Ki was 0.2 µM in assay [1], 0.1 µM in assay [3] and 1 µM in assay [4]. The EC50 in assay [2] was greater than 10 µM; in assay [5], 0.0794 µM.
On to `CCCCCCSc1c[nH]nc1C1=CCCN(C)C1` [Compound 22H, 3-(4-Hexylsulfanyl-1H-pyrazol-3-yl)-1,2,5,6-tetrahydro-1-methylpyridine], for which the Ki in assay [1] (setting [6]) was 0.126 µM; in assay [3], 0.0631 µM; in assay [4], 0.2 µM. Further, the EC50 was 0.01 µM in assay [2] (setting [7]) and 0.126 µM in assay [5] (setting [8]).
Regarding `CCCCSc1c[nH]nc1[C@@H]1CN2CCC[C@H]1C2` (relative stereo) [Compound 60B, Endo-6-(4-butylsulfanyl-1H-pyrazol-3-yl)-1-azabicyclo[3.2.1]octane], the results for the Ki in assay [1], in assay [3] and in assay [4] were 0.251 µM, 0.158 µM and 0.398 µM, respectively. The EC50 in assay [2] (setting [7]) is greater than 10 µM; in assay [5] (setting [8]), greater than 1 µM.
With `COCCOCCSc1c[nH]nc1C1=CCCN(C)C1` [Compound 22P, 3-{4-[2-(2-Methoxy-ethoxy)-ethylsulfanyl]-1H-pyrazol-3-yl}-1,2,5,6-tetrahydro-1-methylpyridine], the Ki in assay [1] (setting [6]) is 6.31 µM; in assay [3], 6.31 µM; in assay [4] it was greater than 10 µM. Further, the EC50 was 1.26 µM in assay [2] (setting [7]) and 0.398 µM in assay [5] (setting [8]).
As for `CN1CCC=C(c2n[nH]cc2SCC=Cc2ccccc2)C1` [Compound 22K, 3-[4-(3-Phenyl-allylsulfanyl)-1H-pyrazol-3-yl]-1,2,5,6-tetrahydro-1-methylpyridine], the Ki in assay [1] (setting [6]) was 0.398 µM; in assay [3], 0.631 µM; in assay [4], 1.26 µM. Besides, the EC50 in assay [2] (setting [7]) is 1.26 µM; in assay [5] (setting [8]), 0.1 µM.
As for `CN1CCC=C(c2n[nH]cc2OCCCc2ccccc2)C1` [Compound 33A, 3-[4-(3-Phenyl-propoxy)-1H-pyrazol-3-yl]-1,2,5,6-tetrahydro-1-methylpyridine], the Ki in assay [1] (setting [6]) is 0.501 µM; in assay [3], 0.251 µM; in assay [4], 1.26 µM. In addition, the EC50 in assay [2] (setting [7]) is 0.794 µM; in assay [5] (setting [8]), 0.126 µM.

(Values after patent publication US8735388B2, “Heterocyclic compounds with affinity to muscarinic receptors” (Abbvie B. V. A., priority 2007, dated 2014).)
